Results as given in US11524968B2, “Heterocyclic compound as a protein kinase inhibitor” (HK inno.N Corporation, priority 2017, dated 2022).

Molecular target: JAK1 (Homo sapiens (Human), UniProt P23458)
Assay: Analysis of JAK1 activity inhibition ability (ADP-Glo Kinase Assay)
Type: biochemical
Conditions: JAK1 enzyme, ADP-Glo luminescence, ATP 250 uM, IRS-itide substrate, 30° C. 40 minutes; read-out: IC50
Method in brief: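 JAK1 enzyme, IRS-itide substrate (40 ng/mL) and 250 uM ATP, both as prepared in kinase buffer (Tris-HCl pH 7.5, MgCl2, BSA, DTT), reacted with compound 40 min at 30 °C. ADP formed was detected by ADP-Glo luminescence; IC50 is the concentration giving 50% inhibition versus control.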

JAK1, sequence (P23458 whole entry): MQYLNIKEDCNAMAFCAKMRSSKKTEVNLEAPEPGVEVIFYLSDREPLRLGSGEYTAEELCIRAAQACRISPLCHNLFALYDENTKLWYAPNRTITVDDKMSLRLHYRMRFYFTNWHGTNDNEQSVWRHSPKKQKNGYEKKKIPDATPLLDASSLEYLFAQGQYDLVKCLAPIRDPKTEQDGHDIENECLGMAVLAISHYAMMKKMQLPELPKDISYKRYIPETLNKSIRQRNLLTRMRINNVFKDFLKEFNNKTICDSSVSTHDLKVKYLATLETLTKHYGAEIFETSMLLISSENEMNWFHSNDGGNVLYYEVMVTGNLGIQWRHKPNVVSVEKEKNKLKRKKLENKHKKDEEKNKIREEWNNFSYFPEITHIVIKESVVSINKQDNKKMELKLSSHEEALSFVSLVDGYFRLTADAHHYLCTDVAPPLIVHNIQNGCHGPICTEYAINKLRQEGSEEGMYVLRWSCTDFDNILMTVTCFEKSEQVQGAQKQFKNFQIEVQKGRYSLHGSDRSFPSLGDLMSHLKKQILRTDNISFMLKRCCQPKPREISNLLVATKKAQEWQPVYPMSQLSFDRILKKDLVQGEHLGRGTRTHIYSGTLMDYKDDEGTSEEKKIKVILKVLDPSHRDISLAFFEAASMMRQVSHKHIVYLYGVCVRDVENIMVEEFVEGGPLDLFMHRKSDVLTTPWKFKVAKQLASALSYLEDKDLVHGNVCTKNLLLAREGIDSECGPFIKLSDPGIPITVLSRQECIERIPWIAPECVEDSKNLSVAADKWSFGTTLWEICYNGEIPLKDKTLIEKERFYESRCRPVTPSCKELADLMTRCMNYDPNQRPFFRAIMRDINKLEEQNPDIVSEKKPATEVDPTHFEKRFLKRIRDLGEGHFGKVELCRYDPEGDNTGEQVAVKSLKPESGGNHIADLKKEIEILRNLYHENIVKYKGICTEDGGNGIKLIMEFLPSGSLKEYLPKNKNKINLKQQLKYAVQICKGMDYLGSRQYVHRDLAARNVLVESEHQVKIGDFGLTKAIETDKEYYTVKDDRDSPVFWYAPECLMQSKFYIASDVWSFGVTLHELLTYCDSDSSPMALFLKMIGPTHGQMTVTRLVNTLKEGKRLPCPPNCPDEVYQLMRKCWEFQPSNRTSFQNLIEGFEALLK

Row | SMILES | IC50
1 | N#CCC1(N2CC=C(c3cc(NC(=O)C4CC4)nc4[nH]ccc34)CC2)CN(C(=O)CC(F)(F)F)C1 [Example 625, N-(4-(1-(3-(cyanomethyl)-1-(3,3,3-trifluoropropanoyl)azetidin-3-yl)-1,2,3,6-tetrahydropyridin-4-yl)-1H-pyrrolo[2,3-b]pyridin-6-yl)cyclopropanecarboxamide] | 20 to 200 nM
2 | CCc1cc(NS(=O)(=O)CC)ccc1-c1cc(NC(=O)C2CC2)nc2[nH]ccc12 [Example 99, N-(4-(2-ethyl-4-(ethylsulfonamido)phenyl)-1H-pyrrolo[2,3-b]pyridin-6-yl)cyclopropanecarboxamide] | < 20 nM
3 | CN(C)S(=O)(=O)N1CCN(c2cc(NC(=O)C3CC3)nc3[nH]ccc23)CC1 [Example 674, N-(4-(4-(N,N-dimethylsulfamoyl)piperazin-1-yl)-1H-pyrrolo[2,3-b]pyridin-6-yl)cyclopropanecarboxamide] | > 200 nM
4 | N#CCCCS(=O)(=O)Nc1ccc(-c2nc(NC(=O)C3CC3)nc3[nH]ccc23)cc1F [Example 204, N-(4-(4-((3-cyanopropyl)sulfonamido)-3-fluorophenyl)-7H-pyrrolo[2,3-d]pyrimidin-2-yl)cyclopropanecarboxamide] | 20 to 200 nM
5 | CS(=O)(=O)N1CCN(c2cc(NC(=O)C3CC3)nc3[nH]ccc23)CC1 [Example 660, N-(4-(4-(methylsulfonyl)piperazin-1-yl)-1H-pyrrolo[2,3-b]pyridin-6-yl)cyclopropanecarboxamide] | > 200 nM
6 | CCc1cc(NS(=O)(=O)CC2(CC#N)CC2)ccc1-c1cc(NC(=O)C2CC2)nc2[nH]ccc12 [Example 110, N-(4-(4-(((1-(cyanomethyl)cyclopropyl)methyl)sulfonamido)-2-ethylphenyl)-1H-pyrrolo[2,3-b]pyridin-6-yl)cyclopropanecarboxamide] | < 20 nM
7 | CC(C)(C#N)CCS(=O)(=O)Nc1ccc(-c2cc(NC(=O)C3CC3)nc3[nH]ccc23)cc1F [Example 87, N-(4-(4-((3-cyano-3-methylbutyl)sulfonamido)-3-fluorophenyl)-1H-pyrrolo[2,3-b]pyridin-6-yl)cyclopropanecarboxamide] | 20 to 200 nM
8 | CC(=O)N1CCC(S(=O)(=O)Nc2ccc(-c3cc(NC(=O)C4CC4)nc4[nH]ccc34)cc2)CC1 [Example 18, N-(4-(4-((1-acetylpiperidine)-4-sulfonamido)phenyl)-1H-pyrrolo[2,3-b]pyridin-6-yl)cyclopropanecarboxamide] | 20 to 200 nM
9 | O=C(Nc1cc(-c2ccc(NS(=O)(=O)Cc3ccc(F)cc3)cc2)c2cc[nH]c2n1)C1CC1 [Example 36, N-(4-(4-(((4-fluorophenyl)methyl)sulfonamido)phenyl)-1H-pyrrolo[2,3-b]pyridin-6-yl)cyclopropanecarboxamide] | < 20 nM
10 | O=C(Nc1cc(-c2ccc(NS(=O)(=O)CCF)cc2)c2cc[nH]c2n1)C1CC1 [Example 8, N-(4-(4-((2-fluoroethyl)sulfonamido)phenyl)-1H-pyrrolo[2,3-b]pyridin-6-yl)cyclopropanecarboxamide] | 20 to 200 nM
11 | CC(C)(C)OC(=O)N1CC2CCC(C1)N2c1cc(NC(=O)C2CC2)nc2[nH]ccc12 [Example 694, tert-butyl 8-(6-(cyclopropanecarboxamido)-1H-pyrrolo[2,3-b]pyridin-4-yl)-3,8-diazabicyclo[3.2.1]octane-3-carboxylate] | > 200 nM
12 | CCS(=O)(=O)Nc1ccc(-c2cc(NC(=O)C3CC3)nc3[nH]ccc23)c(C(=O)OC)c1 [Example 140, methyl 2-(6-(cyclopropanecarboxamido)-1H-pyrrolo[2,3-b]pyridin-4-yl)-5-(ethylsulfonamido)benzoate] | > 200 nM
13 | O=C(Nc1cc(C2=CCN(C(=O)CN3CCS(=O)(=O)CC3)CC2)c2cc[nH]c2n1)C1CC1 [Example 251, N-(4-(1-(2-(1,1-dioxidothiomorpholino)acetyl)-1,2,3,6-tetrahydropyridin-4-yl)-1H-pyrrolo[2,3-b]pyridin-6-yl)cyclopropanecarboxamide] | 20 to 200 nM
14 | O=C(Nc1cc(-c2ccc(NC3CN(C(=O)c4cc(F)cc(F)c4)C3)cc2)c2cc[nH]c2n1)C1CC1 [Example 510, N-(4-(4-((1-(3,5-difluorobenzoyl)azetidin-3-yl)amino)phenyl)-1H-pyrrolo[2,3-b]pyridin-6-yl)cyclopropanecarboxamide] | > 200 nM
15 | CCC(C#N)C(=O)N1CC=C(c2cc(NC(=O)C3CC3)nc3[nH]ccc23)CC1 (centres unmarked) [Example 271, N-(4-(1-(2-cyanobutanoyl)-1,2,3,6-tetrahydropyridin-4-yl)-1H-pyrrolo[2,3-b]pyridin-6-yl)cyclopropanecarboxamide] | 20 to 200 nM
16 | N#CCCS(=O)(=O)NC1CC=C(c2cc(NC(=O)C3CC3)nc3[nH]ccc23)CC1 (centres unmarked) [Example 155, N-(4-(4-((2-cyanoethyl)sulfonamido)cyclohex-1-en-1-yl)-1H-pyrrolo[2,3-b]pyridin-6-yl)cyclopropanecarboxamide] | < 20 nM

Row | SMILES | IC50
17 | O=C(Nc1cc(-c2ccc(CC(=O)N3CCS(=O)(=O)CC3)cc2)c2cc[nH]c2n1)C1CC1 [Example 535, N-(4-(4-(2-(1,1-dioxidothiomorpholino)-2-oxoethyl)phenyl)-1H-pyrrolo[2,3-b]pyridin-6-yl)cyclopropanecarboxamide] | 20 to 200 nM
18 | CC(C)S(=O)(=O)N1CC(CC#N)(N2CC=C(c3cc(NC(=O)C4CC4)nc4[nH]ccc34)CC2)C1 [Example 617, N-(4-(1-(3-(cyanomethyl)-1-(isopropylsulfonyl)azetidin-3-yl)-1,2,3,6-tetrahydropyridin-4-yl)-1H-pyrrolo[2,3-b]pyridin-6-yl)cyclopropanecarboxamide] | < 20 nM
19 | N#CCN1CCC(n2cc(-c3cc(NC(=O)C4CC4)nc4[nH]ccc34)cn2)CC1 [Example 611, N-(4-(1-(1-(cyanomethyl)piperidin-4-yl)-1H-pyrazol-4-yl)-1H-pyrrolo[2,3-b]pyridin-6-yl)cyclopropanecarboxamide] | 20 to 200 nM
20 | CCS(=O)(=O)Nc1ccc(-c2nc(NC(=O)C3CC3)nc3[nH]cnc23)cc1 [Example 209, N-(6-(4-(ethylsulfonamido)phenyl)-9H-purin-2-yl)cyclopropanecarboxamide] | > 200 nM
21 | O=C(Nc1cc(C2=CC3CCCC(C2)N3C(=O)c2ccnc(Cl)c2)c2cc[nH]c2n1)C1CC1 (centres unmarked) [Example 367, N-(4-(9-(2-chloroisonicotinoyl)-9-azabicyclo[3.3.1]non-2-en-3-yl)-1H-pyrrolo[2,3-b]pyridin-6-yl)cyclopropanecarboxamide] | 20 to 200 nM
22 | N#CCC(=O)N1CC=C(c2cc(NC(=O)C3CC3)nc3[nH]ccc23)CC1C(F)(F)F (centres unmarked) [Example 393, N-(4-(1-(2-cyanoacetyl)-2-(trifluoromethyl)-1,2,3,6-tetrahydropyridin-4-yl)-1H-pyrrolo[2,3-b]pyridin-6-yl)cyclopropanecarboxamide] | < 20 nM
23 | C[C@H]1CC(Nc2ccc(-c3cc(NC(=O)C4CC4)nc4[nH]ccc34)cc2)CCN1C(=O)c1ccnc(F)c1 (stereo partly drawn) [Example 503, N-(4-(4-(((2S)-1-(2-fluoroisonicotinoyl)-2-methylpiperidin-4-yl)amino)phenyl)-1H-pyrrolo[2,3-b]pyridin-6-yl)cyclopropanecarboxamide] | > 200 nM
24 | O=C(Nc1cc(-c2ccc(NC3CCN(C(=O)c4ccnc(F)c4)CC3)c(F)c2)c2cc[nH]c2n1)C1CC1 [Example 500, N-(4-(3-fluoro-4-((1-(2-fluoroisonicotinoyl)piperidin-4-yl)amino)phenyl)-1H-pyrrolo[2,3-b]pyridin-6-yl)cyclopropanecarboxamide] | > 200 nM
25 | O=C(Nc1cc(-c2ccc(NS(=O)(=O)c3cccc(Cl)c3)cc2)c2cc[nH]c2n1)C1CC1 [Example 26, N-(4-(4-((3-chlorophenyl)sulfonamido)phenyl)-1H-pyrrolo[2,3-b]pyridin-6-yl)cyclopropanecarboxamide] | 20 to 200 nM
26 | O=C(Nc1cc(-c2ccc(NS(=O)(=O)CC3CCOC3)cc2)c2cc[nH]c2n1)C1CC1 (centres unmarked) [Example 54, N-(4-(4-(((tetrahydrofuran-3-yl)methyl)sulfonamido)phenyl)-1H-pyrrolo[2,3-b]pyridin-6-yl)cyclopropanecarboxamide] | < 20 nM
27 | CCS(=O)(=O)N1CC=C(c2cc(NC(=O)C3CC3)nc3[nH]ccc23)C(C)(C)C1 [Example 179, N-(4-(1-(ethylsulfonyl)-3,3-dimethyl-1,2,3,6-tetrahydropyridin-4-yl)-1H-pyrrolo[2,3-b]pyridin-6-yl)cyclopropanecarboxamide] | > 200 nM
28 | CC(c1ccc(-c2cc(NC(=O)C3CC3)nc3[nH]ccc23)cc1)N1CCS(=O)(=O)CC1 (centres unmarked) [Example 589, N-(4-(4-(1-(1,1-dioxidothiomorpholino)ethyl)phenyl)-1H-pyrrolo[2,3-b]pyridin-6-yl)cyclopropanecarboxamide] | < 20 nM
29 | CC1CN(C(=O)Cc2cccs2)CC=C1c1cc(NC(=O)C2CC2)nc2[nH]ccc12 (centres unmarked) [Example 345, N-(4-(3-methyl-1-(2-(thiophen-2-yl)acetyl)-1,2,3,6-tetrahydropyridin-4-yl)-1H-pyrrolo[2,3-b]pyridin-6-yl)cyclopropanecarboxamide] | 20 to 200 nM
30 | O=C(Nc1nc(-c2ccc(CNc3cccc(F)c3)cc2)c2nc[nH]c2n1)C1CC1 [Example 598, N-(6-(4-(((3-fluorophenyl)amino)methyl)phenyl)-9H-purin-2-yl)cyclopropanecarboxamide] | > 200 nM
31 | O=C(Nc1cc(-c2ccc(NC3CCN(C(=O)NCC(F)(F)F)CC3)c(F)c2)c2cc[nH]c2n1)C1CC1 [Example 505, 4-((4-(6-(cyclopropanecarboxamido)-1H-pyrrolo[2,3-b]pyridin-4-yl)-2-fluorophenyl)amino)-N-(2,2,2-trifluoroethyl)piperidine-1-carboxamide] | 20 to 200 nM
32 | CN(C)S(=O)(=O)Nc1ccc(-c2nc(NC(=O)C3CC3)nc3[nH]ccc23)cc1 [Example 236, N-(4-(4-((N,N-dimethylsulfamoyl)amino)phenyl)-7H-pyrrolo[2,3-d]pyrimidin-2-yl)cyclopropanecarboxamide] | 20 to 200 nM
